These results are taken from US12252524B2, “GIP/GLP1 co-agonist compounds” (Eli Lilly and Company, priority 2018, dated 2025).

Structures are written as SMILES. Numbered stars: 1 amine (or outer) side, 2 acyl side, 3 side chain; on linkers, the order of the positions; unused ones are H or OH. Square brackets hold non-standard residues; d marks the D form. Side chains are listed from the residue outwards. Peptide text beside a SMILES is read from it. * marks the point of attachment. C20 diacid = O=C(O)CCCCCCCCCCCCCCCCCCC(=O)*; γGlu = O=C(O)[C@H](CCC(=O)[*:2])N[*:1]; αMeF = C[C@](N)(Cc1ccccc1)C(=O)O; AEEA = NCCOCCOCC(=O)O; Aib = CC(C)(N)C(=O)O

In general, EC50 refers to the concentration at which the effect is half-maximal.

Experiment [1] addresses human GLP-1 receptor (GLP-1R) (Homo sapiens, UniProt P43220). Description: cAMP pharmacological functional assay in presence of casein, hGLP-1R. It is filed as cell-based. The note with it: HEK293 cells expressing hGLP-1R, 0.1% Casein, geometric mean; read-out: hGLP1R cAMP Rel EC50 nM (SEM, n).
Experiment [2] concerns the target T1, gastric inhibitory peptide receptor (GIPR) (Homo sapiens, UniProt P48546).
T1 sequence (P48546 22-466): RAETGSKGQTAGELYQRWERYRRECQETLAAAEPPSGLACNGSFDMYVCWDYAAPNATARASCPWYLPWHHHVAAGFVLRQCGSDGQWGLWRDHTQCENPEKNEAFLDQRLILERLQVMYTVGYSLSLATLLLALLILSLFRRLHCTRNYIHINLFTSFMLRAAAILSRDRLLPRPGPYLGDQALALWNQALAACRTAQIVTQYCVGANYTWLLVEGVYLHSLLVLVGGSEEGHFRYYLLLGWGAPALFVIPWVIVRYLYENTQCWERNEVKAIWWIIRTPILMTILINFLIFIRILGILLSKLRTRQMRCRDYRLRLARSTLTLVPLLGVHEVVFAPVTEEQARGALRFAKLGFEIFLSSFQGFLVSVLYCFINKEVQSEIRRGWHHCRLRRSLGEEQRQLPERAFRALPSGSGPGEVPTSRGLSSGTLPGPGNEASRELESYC
Description: cAMP pharmacological functional assay in presence of casein, hGIPR. It is filed as cell-based. The note with it: HEK293 cells expressing hGIPR, 0.1% Casein, geometric mean; read-out: hGIPR cAMP Rel EC50 nM (SEM, n).

Sequence of human GLP-1 receptor (GLP-1R) (P43220 24-463): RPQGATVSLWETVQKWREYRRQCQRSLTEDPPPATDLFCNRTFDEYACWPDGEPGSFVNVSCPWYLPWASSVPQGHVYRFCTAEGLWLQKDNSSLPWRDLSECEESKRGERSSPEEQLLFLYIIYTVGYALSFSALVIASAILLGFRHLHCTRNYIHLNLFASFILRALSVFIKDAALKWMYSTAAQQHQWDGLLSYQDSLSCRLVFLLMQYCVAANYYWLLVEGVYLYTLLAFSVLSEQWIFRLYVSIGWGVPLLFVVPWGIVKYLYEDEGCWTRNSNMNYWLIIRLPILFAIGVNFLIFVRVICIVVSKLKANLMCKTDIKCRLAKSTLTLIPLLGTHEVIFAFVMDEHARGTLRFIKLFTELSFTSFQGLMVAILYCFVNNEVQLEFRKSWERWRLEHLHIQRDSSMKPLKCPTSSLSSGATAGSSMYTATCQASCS

With `CC[C@H](C)[C@H](NC(=O)[C@H](CCCCN)NC(=O)[C@H](CC(=O)O)NC(=O)[C@H](CC(C)C)NC(=O)[C@H](CC(C)C)NC(=O)[C@@H](NC(=O)[C@H](CO)NC(=O)[C@H](Cc1ccc(O)cc1)NC(=O)[C@H](CC(=O)O)NC(=O)[C@H](CO)NC(=O)[C@@H](NC(=O)[C@H](Cc1ccccc1)NC(=O)[C@@H](NC(=O)CNC(=O)[C@H](CCC(=O)O)NC(=O)C(C)(C)NC(=O)[C@@H](N)Cc1ccc(O)cc1)[C@@H](C)O)[C@@H](C)O)[C@@H](C)CC)C(=O)N[C@@H](C)C(=O)N[C@@H](CCC(N)=O)C(=O)NC(C)(C)C(=O)N[C@@H](CCCCNC(=O)COCCOCCNC(=O)COCCOCCNC(=O)CC[C@H](NC(=O)CCCCCCCCCCCCCCCCCCC(=O)O)C(=O)O)C(=O)N[C@@H](Cc1ccccc1)C(=O)N[C@H](C(=O)N[C@@H](CCC(=O)O)C(=O)N[C@@H](Cc1ccc(O)cc1)C(=O)N[C@@H](CC(C)C)C(=O)N[C@H](C(=O)N[C@@H](CCC(=O)O)C(=O)NCC(=O)NCC(N)=O)[C@@H](C)CC)[C@@H](C)CC` [Example 72] (H-Y[Aib]EGTFTSDYSILLDKIAQ[Aib]K([AEEA-AEEA-γGlu-C20 diacid])FIEYLIEGG-NH2), the EC50 turned out to be 0.906 nM in experiment [1] and 0.252 nM in experiment [2].
For the molecule `CC[C@H](C)[C@H](NC(=O)[C@H](CCCCN)NC(=O)[C@H](CC(=O)O)NC(=O)[C@H](CC(C)C)NC(=O)[C@H](CC(C)C)NC(=O)[C@@H](NC(=O)[C@H](CO)NC(=O)[C@H](Cc1ccc(O)cc1)NC(=O)[C@H](CC(=O)O)NC(=O)[C@H](CO)NC(=O)[C@@H](NC(=O)[C@H](Cc1ccccc1)NC(=O)[C@@H](NC(=O)CNC(=O)[C@H](CCC(=O)O)NC(=O)C(C)(C)NC(=O)[C@@H](N)Cc1ccc(O)cc1)[C@@H](C)O)[C@@H](C)O)[C@@H](C)CC)C(=O)N[C@@H](C)C(=O)N[C@@H](CCC(N)=O)C(=O)NC(C)(C)C(=O)N[C@@H](C)C(=O)N[C@@H](Cc1ccccc1)C(=O)N[C@H](C(=O)N[C@@H](CCC(=O)O)C(=O)N[C@@H](Cc1ccc(O)cc1)C(=O)N[C@@H](CC(C)C)C(=O)N[C@H](C(=O)N[C@@H](CCCCNC(=O)COCCOCCNC(=O)COCCOCCNC(=O)CC[C@H](NC(=O)CCCCCCCCCCCCCCCCCCC(=O)O)C(=O)O)C(=O)NCC(=O)NCC(N)=O)[C@@H](C)CC)[C@@H](C)CC` [Example 73] (H-Y[Aib]EGTFTSDYSILLDKIAQ[Aib]AFIEYLIK([AEEA-AEEA-γGlu-C20 diacid])GG-NH2), the EC50 in experiment [1] is 2.55 nM; in experiment [2], 0.979 nM.
In the case of `CC[C@H](C)[C@H](NC(=O)[C@H](CCCCN)NC(=O)[C@H](CC(C)C)NC(=O)[C@H](CC(C)C)NC(=O)[C@@H](NC(=O)[C@H](CO)NC(=O)[C@H](Cc1ccc(O)cc1)NC(=O)[C@H](CC(=O)O)NC(=O)[C@H](CO)NC(=O)[C@@H](NC(=O)[C@H](Cc1ccccc1)NC(=O)[C@@H](NC(=O)CNC(=O)[C@H](CCC(=O)O)NC(=O)C(C)(C)NC(=O)[C@@H](N)Cc1ccc(O)cc1)[C@@H](C)O)[C@@H](C)O)[C@@H](C)CC)C(=O)N[C@@H](C)C(=O)N[C@@H](CCC(N)=O)C(=O)NC(C)(C)C(=O)N[C@@H](C)C(=O)N[C@@H](Cc1ccccc1)C(=O)N[C@H](C(=O)N[C@@H](CCC(=O)O)C(=O)N[C@@H](Cc1ccc(O)cc1)C(=O)N[C@@H](CC(C)C)C(=O)N[C@H](C(=O)N[C@@H](CCC(=O)O)C(=O)NCC(=O)NCC(=O)N1CCC[C@H]1C(=O)N[C@@H](CO)C(=O)N[C@@H](CO)C(=O)NCC(=O)N[C@@H](C)C(=O)N1CCC[C@H]1C(=O)N1CCC[C@H]1C(=O)N[C@@H](CCCCNC(=O)COCCOCCNC(=O)COCCOCCNC(=O)CC[C@H](NC(=O)CCCCCCCCCCCCCCCCCCC(=O)O)C(=O)O)C(=O)N[C@@H](CO)C(N)=O)[C@@H](C)CC)[C@@H](C)CC` [Example 77] (H-Y[Aib]EGTFTSDYSILLKIAQ[Aib]AFIEYLIEGGPSSGAPPK([AEEA-AEEA-γGlu-C20 diacid])S-NH2), the half-maximal effective concentration (EC50) is more than 2000 nM in experiment [1] and 135 nM in experiment [2].
Regarding `CC[C@H](C)[C@H](NC(=O)[C@H](CCCCN)NC(=O)[C@H](CC(=O)O)NC(=O)[C@H](CC(C)C)NC(=O)[C@H](CC(C)C)NC(=O)[C@@H](NC(=O)[C@H](CO)NC(=O)[C@H](CCCCNC(=O)COCCOCCNC(=O)COCCOCCNC(=O)CC[C@H](NC(=O)CCCCCCCCCCCCCCCCCCC(=O)O)C(=O)O)NC(=O)[C@H](CC(=O)O)NC(=O)[C@H](CO)NC(=O)[C@@H](NC(=O)[C@](C)(Cc1ccccc1)NC(=O)[C@@H](NC(=O)CNC(=O)[C@H](CCC(=O)O)NC(=O)C(C)(C)NC(=O)[C@@H](N)Cc1ccc(O)cc1)[C@@H](C)O)[C@@H](C)O)[C@@H](C)CC)C(=O)N[C@@H](C)C(=O)N[C@@H](CCC(N)=O)C(=O)NC(C)(C)C(=O)N[C@@H](C)C(=O)N[C@@H](Cc1ccccc1)C(=O)N[C@H](C(=O)N[C@@H](CCC(=O)O)C(=O)N[C@@H](Cc1ccc(O)cc1)C(=O)N[C@@H](CC(C)C)C(=O)N[C@H](C(=O)N[C@@H](CCC(=O)O)C(=O)NCC(=O)NCC(N)=O)[C@@H](C)CC)[C@@H](C)CC` [Example 92] (H-Y[Aib]EGT[αMeF]TSDK([AEEA-AEEA-γGlu-C20 diacid])SILLDKIAQ[Aib]AFIEYLIEGG-NH2), the EC50 is 0.257 nM in experiment [1] and 0.338 nM in experiment [2].
Regarding `CC[C@H](C)[C@H](NC(=O)[C@H](CCCCN)NC(=O)[C@H](CC(=O)O)NC(=O)[C@H](CC(C)C)NC(=O)[C@H](CC(C)C)NC(=O)[C@@H](NC(=O)[C@H](CO)NC(=O)[C@H](Cc1ccc(O)cc1)NC(=O)[C@H](CC(=O)O)NC(=O)[C@H](CO)NC(=O)[C@@H](NC(=O)[C@](C)(Cc1ccccc1)NC(=O)[C@@H](NC(=O)CNC(=O)[C@H](CCC(=O)O)NC(=O)C(C)(C)NC(=O)[C@@H](N)Cc1ccc(O)cc1)[C@@H](C)O)[C@@H](C)O)[C@@H](C)CC)C(=O)N[C@@H](C)C(=O)N[C@@H](CCC(N)=O)C(=O)NC(C)(C)C(=O)N[C@@H](CCCCNC(=O)COCCOCCNC(=O)COCCOCCNC(=O)CC[C@H](NC(=O)CCCCCCCCCCCCCCCCCCC(=O)O)C(=O)O)C(=O)N[C@@H](Cc1ccccc1)C(=O)N[C@H](C(=O)N[C@@H](CCC(=O)O)C(=O)N[C@@H](Cc1ccc(O)cc1)C(=O)N[C@@H](CC(C)C)C(=O)N[C@H](C(=O)N[C@@H](CCC(=O)O)C(=O)NCC(=O)NCC(N)=O)[C@@H](C)CC)[C@@H](C)CC` [Example 94] (H-Y[Aib]EGT[αMeF]TSDYSILLDKIAQ[Aib]K([AEEA-AEEA-γGlu-C20 diacid])FIEYLIEGG-NH2), the EC50 worked out at 0.338 nM in experiment [1] and 0.425 nM in experiment [2].
In the case of `CC[C@H](C)[C@H](NC(=O)[C@H](CCCCN)NC(=O)[C@H](CC(=O)O)NC(=O)[C@H](CC(C)C)NC(=O)[C@H](CC(C)C)NC(=O)[C@@H](NC(=O)[C@H](CO)NC(=O)[C@H](Cc1ccc(O)cc1)NC(=O)[C@H](CC(=O)O)NC(=O)[C@H](CO)NC(=O)[C@@H](NC(=O)[C@](C)(Cc1ccccc1)NC(=O)[C@@H](NC(=O)CNC(=O)[C@H](CCC(=O)O)NC(=O)C(C)(C)NC(=O)[C@@H](N)Cc1ccc(O)cc1)[C@@H](C)O)[C@@H](C)O)[C@@H](C)CC)C(=O)N[C@@H](C)C(=O)N[C@@H](CCC(N)=O)C(=O)NC(C)(C)C(=O)N[C@@H](C)C(=O)N[C@@H](Cc1ccccc1)C(=O)N[C@H](C(=O)N[C@@H](CCC(=O)O)C(=O)N[C@@H](Cc1ccc(O)cc1)C(=O)N[C@@H](CC(C)C)C(=O)N[C@H](C(=O)N[C@@H](CCCCNC(=O)COCCOCCNC(=O)COCCOCCNC(=O)CC[C@H](NC(=O)CCCCCCCCCCCCCCCCCCC(=O)O)C(=O)O)C(=O)NCC(=O)NCC(N)=O)[C@@H](C)CC)[C@@H](C)CC` [Example 95] (H-Y[Aib]EGT[αMeF]TSDYSILLDKIAQ[Aib]AFIEYLIK([AEEA-AEEA-γGlu-C20 diacid])GG-NH2), the half-maximal effective concentration (EC50) turned out to be 1.01 nM in experiment [1] and 1.17 nM in experiment [2].
